What was measured:
Type in all cases: functional
Leishmania donovani [1] = test: Antimicrobial activity against Leishmania donovani K132 amastigote
Leishmania donovani [2] = test: Antimicrobial activity against Leishmania donovani K135 amastigote
Leishmania donovani [3] = test: Antimicrobial activity against Leishmania donovani K149 amastigote
Leishmania donovani [4] = test: Antimicrobial activity against Leishmania donovani K216 amastigote
Leishmania donovani [5] = test: Antimicrobial activity against Leishmania donovani K516 amastigote
Leishmania donovani [6] = test: Antimicrobial activity against Leishmania donovani K251 amastigote
Leishmania donovani [7] = test: Antimicrobial activity against Leishmania donovani K111 amastigote
Leishmania donovani [8] = test: Antimicrobial activity against Leishmania donovani K80 amastigote
Leishmania donovani [9] = test: Antimicrobial activity against Leishmania donovani K131 amastigote
Leishmania donovani [10] = test: Antimicrobial activity against Leishmania donovani K509 amastigote
Leishmania donovani [11] = test: Antimicrobial activity against Leishmania donovani K133 amastigote
Leishmania donovani [12] = test: Antimicrobial activity against Leishmania donovani LdAG83 amastigote
Leishmania donovani [13] = test: Antimicrobial activity against Leishmania donovani K435 amastigote
Leishmania donovani [14] = test: Antimicrobial activity against Leishmania donovani K481 amastigote
Leishmania donovani [15] = test: Antimicrobial activity against Leishmania donovani K417 amastigote
Leishmania donovani [16] = test: Antimicrobial activity against Leishmania donovani K498 amastigote
Leishmania donovani [17] = test: Antimicrobial activity against Leishmania donovani K429 amastigote
Leishmania donovani [18] = test: Antimicrobial activity against Leishmania donovani K439 amastigote
Leishmania donovani [19] = test: Antimicrobial activity against Leishmania donovani K59 amastigote
Leishmania donovani [20] = test: Antimicrobial activity against Leishmania donovani K192 amastigote

Work on “D-gluconic acid 2,4:2',4'-O-[oxybis(oxidostibylidyne)]bis-trisodium salt nonahydrate” yielded an ED50 (Leishmania donovani [1]) of 3.95 µg/mL, an ED50 (Leishmania donovani [2]) of 4.22 µg/mL and an ED50 (Leishmania donovani [3]) of 15.7 µg/mL. It also gave an ED50 (Leishmania donovani [4]) of 2.14 µg/mL, an ED50 (Leishmania donovani [5]) of 16.5 µg/mL and an ED50 (Leishmania donovani [6]) of 11.8 µg/mL. The ED50 (Leishmania donovani [7]) was 5.63 µg/mL, the ED50 (Leishmania donovani [8]) was 10.4 µg/mL and the ED50 (Leishmania donovani [9]) was 19.4 µg/mL. For the same substance, the ED50 (Leishmania donovani [10]) was 16.8 µg/mL, the ED50 (Leishmania donovani [11]) was 3.45 µg/mL and the ED50 (Leishmania donovani [12]) was 2.06 µg/mL. It also gave an ED50 (Leishmania donovani [13]) of 11.8 µg/mL, an ED50 (Leishmania donovani [14]) of 17.5 µg/mL and an ED50 (Leishmania donovani [15]) of 14.7 µg/mL. For the same substance, the ED50 (Leishmania donovani [16]) was 15.8 µg/mL, the ED50 (Leishmania donovani [17]) was 13.8 µg/mL and the ED50 (Leishmania donovani [18]) was 12.9 µg/mL. The ED50 (Leishmania donovani [19]) was 14.7 µg/mL and the ED50 (Leishmania donovani [20]) was 20.3 µg/mL.
